Assay results taken from PubChem BioAssay (NCI).
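Five compound concentrations were applied to cells in 96-well plates for 48 hours; endpoints were derived by simple linear interpolation of the resulting dose-response curve. GI50 marks 50% less growth. At the TGI there is no net growth.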

Legend:
Test in all cases: NCI anticancer screen, dose series, 48 h
CCRF-CEM leukemia = system: CCRF-CEM leukemia
T-47D breast = system: T-47D breast
OVCAR-3 ovarian = system: OVCAR-3 ovarian
DLD-1 colon = system: DLD-1 colon
DMS 114 small cell lung = system: DMS 114 small cell lung
DMS 273 small cell lung = system: DMS 273 small cell lung
KM20L2 colon = system: KM20L2 colon
LXFL 529 NSCLC = system: LXFL 529 NSCLC
M19-MEL melanoma = system: M19-MEL melanoma
XF 498 CNS = system: XF 498 CNS
SNB-78 CNS = system: SNB-78 CNS
HOP-18 NSCLC = system: HOP-18 NSCLC

| SMILES | TGI (CCRF-CEM leukemia) | TGI (T-47D breast) | TGI (OVCAR-3 ovarian) | also measured |
| --- | --- | --- | --- | --- |
| CCCCCCCN1C(=O)C(O)(c2ccc(C3(O)C(=O)N(CCCCCCC)c4ccccc43)s2)c2ccccc21 (configuration not stated) | 27 µM | 15 µM |  |  |
| CCOC(=O)/C=C1\c2ccccc2C(=O)N1CC(=O)OCC | > 100 µM | > 100 µM | > 100 µM |  |
| CCc1c(Cc2cc(C)cc(C)c2)n2c(nc1=O)SCC2CBr (configuration not stated) | > 50 µM | > 50 µM |  |  |
| COc1cc2c(cc1OC)C(N)CC2=O (configuration not stated) | > 100 µM | > 100 µM | > 100 µM |  |
| COC(=O)c1ccccc1/C=C1\Cc2cc(C)c(C)cc2C1=O | > 100 µM | > 100 µM | > 100 µM |  |
| Cc1ccsc1/C=N/Nc1nncc2ccccc12 | > 100 µM | > 100 µM | > 100 µM |  |
| Cc1ccc(/C=C/C(=O)c2cc(CN(C)C)c(O)c(CN(C)C)c2)cc1 | > 100 µM | > 100 µM | 69.5 µM |  |
| COc1c(O)c2c(=O)cc(OC)c3c4c(OC)cc(=O)c5c(O)c(OC)c6c(c(c1C(C(C)=O)C6C(C)O)c23)c54 (configuration not stated) | 1.16 µM | 1.64 µM | 0.442 µM |  |
| COC(=O)[C@@H]1C[C@@H]2c3ccccc3N(S(=O)(=O)c3ccccc3)[C@@H]2N1C(=O)OC | > 100 µM |  | > 100 µM |  |
| C/C=C/C(=O)N1C(=O)OC[C@@H]1c1ccccc1 | 44.8 µM | 36.8 µM | 33.7 µM |  |
| OC1CN2Cc3cc4c(cc3[C@]13C=C[C@@H](O)CC23)OCO4 (some centres not stated) | 48.5 µM | 31.2 µM | > 100 µM |  |
| Cc1cn(C2CC(N)C(C(=O)O)O2)c(=O)[nH]c1=O (configuration not stated) | > 100 µM |  | > 100 µM |  |
| CSc1nc2[nH]c(=O)c(C)nc2c(=O)[nH]1 | > 100 µM |  | > 100 µM | TGI (DLD-1 colon): > 100 µM; TGI (DMS 114 small cell lung): > 100 µM; TGI (DMS 273 small cell lung): > 100 µM; TGI (KM20L2 colon): > 100 µM; TGI (LXFL 529 NSCLC): > 100 µM; TGI (M19-MEL melanoma): > 100 µM; TGI (XF 498 CNS): > 100 µM |
| O=C(O)c1ccccc1/C=N/NC1=NCCCCN1 | > 100 µM | > 100 µM | > 100 µM |  |
| Cc1c2c(n(CCN(C)C)c1C)NN=C(C#N)S2(=O)=O |  | > 100 µM | > 100 µM |  |
| C=CC(C)CCC(C/C=C(\C)CCC=C(C)C)C(=C)CCCC(C)C (configuration not stated) | > 100 µM | > 100 µM | > 100 µM |  |
| COc1cc2c(cc1OCc1ccccc1)NC(=S)[C@@H]1CCCN1C2=S | > 100 µM | > 100 µM | > 100 µM |  |
| Cc1c(C)c(S(=O)(=O)N(CCCN)OCCCN)c(C)c2c1OC(C)(C)C2 | 90 µM | > 100 µM | > 100 µM |  |
| COc1cc(/C=C2/C(=O)N(C(=O)c3ccc(Cl)cc3)N=C2C)cc(OC)c1OC | > 100 µM |  | > 100 µM | TGI (DLD-1 colon): > 100 µM; TGI (KM20L2 colon): > 100 µM; TGI (LXFL 529 NSCLC): > 100 µM; TGI (M19-MEL melanoma): > 100 µM; TGI (SNB-78 CNS): > 100 µM; TGI (XF 498 CNS): > 100 µM |

| SMILES | TGI (CCRF-CEM leukemia) | TGI (T-47D breast) | TGI (OVCAR-3 ovarian) | also measured |
| --- | --- | --- | --- | --- |
| NC(=O)c1[nH]cnc1/N=N/SCC(N)C(=O)O (configuration not stated) | > 100 µM | > 100 µM | > 100 µM |  |
| [N-]=[N+]=NC(CBr)c1cn([C@H]2C[C@H](O)[C@@H](CO)O2)c(=O)[nH]c1=O (some centres not stated) | > 100 µM |  | > 100 µM | TGI (DLD-1 colon): > 100 µM; TGI (DMS 114 small cell lung): > 100 µM; TGI (DMS 273 small cell lung): > 100 µM; TGI (HOP-18 NSCLC): > 100 µM; TGI (KM20L2 colon): > 100 µM; TGI (LXFL 529 NSCLC): > 100 µM; TGI (M19-MEL melanoma): > 100 µM; TGI (SNB-78 CNS): > 100 µM |
| O=C(O)CCCOc1cc(-c2ccccc2F)nc2cc3c(cc12)OCO3 | 9.86 µM | > 100 µM | 6.74 µM | GI50 (OVCAR-3 ovarian): 2.35 µM |
| C=CCOC(=O)[C@@H]1C[C@@H](OC(C)(C)C)CN1C(=O)[C@@H]1[C@H]2OC(C)(C)O[C@H]2CN1C(=O)OCC1c2ccccc2-c2ccccc21 | 36.3 µM | 45 µM | 35.2 µM |  |
| O=C(NC(Nc1ccc(F)c(Cl)c1)(C(F)(F)F)C(F)(F)F)OCc1ccccc1 | > 100 µM | > 100 µM | 34.8 µM |  |
| COc1cc(/C=C/c2cc(/C=C/c3ccc(O)c(OC)c3)oc(=O)c2)ccc1O | > 26.1 µM | 4.86 µM | 5.68 µM |  |
| Cc1cc(NS(=O)(=O)c2ccc(Nc3c4ccccc4nc4ccc(C(=O)Nc5ccc(S(N)(=O)=O)cc5)cc34)cc2)no1 | > 100 µM | > 100 µM | > 100 µM |  |
| O=C(c1ccccc1)c1sc2c(=O)c(C(=O)c3ccccc3)c(C(=O)c3ccccc3)sc2c(=O)c1C(=O)c1ccccc1 | > 100 µM | > 100 µM | > 100 µM |  |
| COc1cc(N(CCC#N)CCC#N)ccc1/C(N=Nc1ccccc1)=N/NC(=O)c1cc(Br)ccc1O | 33.2 µM | 57.8 µM | 83.5 µM |  |
| S=c1sc2nc(Cl)nc(Cl)c2s1 | > 46.6 µM | 31.9 µM | 25.2 µM |  |
| O=C(Nc1ccccc1F)c1cc2ccc(O)cc2oc1=Nc1cccc(C(F)(F)F)c1 | 4.79 µM | 15.8 µM | > 100 µM |  |
| O=C1NC(N2CCCC(CO)C2)=N/C1=C\c1ccc(Cl)cc1 (configuration not stated) | > 100 µM | > 100 µM | > 100 µM |  |
| CN1CCC23c4c5ccc(O)c4OC2c2[nH]c4ccccc4c2CC3(O)C1C5 (configuration not stated) | 46.9 µM | 46.9 µM | > 100 µM |  |
| C=CC[C@@]1(C)CCCCCCCCC[C@@](C)(CC=C)C1=O | 42.8 µM | 60.9 µM | 38.1 µM |  |
| CCS(=O)(=O)CCn1cnc2c1c(=O)n(C)c(=O)n2C | > 100 µM | > 100 µM | > 100 µM |  |
| O=C1/C(=C/c2ccco2)N=C(c2ccccc2)N1c1cc2cc(Sc3ccccc3)ccc2[nH]1 | > 25 µM | > 25 µM |  |  |
| CCOC(=O)c1cnc(-n2[nH]c3c(c2=O)CCCC3)[nH]c1=O | > 100 µM | > 100 µM |  |  |
| Cc1ccc(S(=O)(=O)Oc2nc3ccccc3nc2N(S(=O)(=O)c2ccc(C)cc2)S(=O)(=O)c2ccc(C)cc2)cc1 | > 100 µM |  | > 100 µM |  |
